This test has as its system tumor cell. Briefly: Cytotoxicity assay (MTS). The class given is cell-based. Particulars: 72 h; incubation for three days; read-out: IC50, tumor cell growth inhibition (MTS). The method, then: The efficacy of a test compound in inhibiting tumor cell growth was analyzed using a MTS assay. The MTS assay is a calorimetric method for the determination of viable cells in proliferation by using a tetrazolium compound (3-(4,5-dimethylthiazol-2-yl)-5-(3-[…])-2-(4-sulfophenyl)-2H-tetrazolium, inner salt; MTS) and an electron-coupling agent (phenazine methosulfate; PMS). The MTS reagent is converted by dehydrogenase enzymes in metabolically active cells into a formazan that is soluble in a tissue culture medium.
In this assay, tumor cell suspensions (30 μl/well) were seeded into 384-well flat-bottomed tissue culture plates at an appropriate density overnight. A fresh medium (3 μl/well) containing varying concentrations of a test compound or vehicle was added to the culture followed by incubation for three days. At the end of the incubation, all plates were processed simultaneously as follows: The culture medium was aspirated, a MTS cell proliferation assay (Promega) solution (30 μl/well) was added, and the plates were incubated at 37° C. for about 2 hours. Absorbance (a parameter proportional to the cell mass) was measured at 490 nm using a Multiskan (Thermo Electron Corporation, Waltham, Mass.). Inhibition effects were expressed as corrected T/C values for each test compound according to the following equation:
T/C=(T−Blank)/(C−Blank)×100(%),
where T is the mean absorbance of the treated cells, C is the mean absorbance of the controls, and Blank is the mean absorbance of the cell free well.
The term IC50 denotes the concentration needed to halve the response being measured. As to `CCCC(c1nc2c(oc3ccccc32)c(=O)n1Cc1ccccc1)N(CCCN)C(=O)c1ccc(C)cc1` (centres unmarked) [Compound 50], the IC50 is less than 30 µM.

Turning to `CCCC(c1nc2c(oc3ccccc32)c(=O)n1Cc1ccccc1)N(CCN)C(=O)c1ccc(C)cc1` (centres unmarked) [Compound 51], the half-maximal inhibitory concentration (IC50) was less than 30 µM.

Consider `Cc1ccc(C(=O)N(CCN)C(c2nc3c(oc4ccc(Cl)cc43)c(=O)n2Cc2ccccc2)C(C)C)cn1` (centres unmarked) [Compound 56], for which the IC50 is less than 30 µM.

`CCCC(c1nc2c(oc3ccccc32)c(=O)n1Cc1ccccc1)N(CC(O)CN)C(=O)c1ccc(C)cc1` (centres unmarked) [Compound 58]: the IC50 was less than 30 µM.

`Cc1ccc(C(=O)N(CCN)C(c2nc3c(oc4ccc(Br)cc43)c(=O)n2Cc2ccccc2)C(C)C)cn1` (centres unmarked) [Compound 59]: the concentration for half-maximal inhibition (IC50) is less than 30 µM.

On to `Cc1ccc(C(=O)N(CCN)C(c2nc3c(oc4cccc(F)c43)c(=O)n2Cc2ccccc2)C(C)C)cc1` (centres unmarked) [Compound 60], for which the IC50 is less than 30 µM.

For the compound `Cc1ccc(C(=O)N(CCCN)C(c2nc3c(oc4cccc(F)c43)c(=O)n2Cc2ccccc2)C(C)C)cc1` (centres unmarked) [Compound 61], the IC50 is less than 30 µM.

For the compound `Cc1ccc(C(=O)N(CCCN)C(c2nc3c(oc4ccc(F)cc43)c(=O)n2Cc2ccccc2)C(C)C)cc1` (centres unmarked) [Compound 63], the IC50 is less than 30 µM.

As for `CC(C)C(c1nc2c(oc3ccc(F)cc32)c(=O)n1Cc1ccccc1)N(CCN)C(=O)c1ccc(Cl)cc1` (centres unmarked) [Compound 64], the half-inhibitory concentration (IC50) is less than 30 µM.

Turning to `CC(C)C(c1nc2c(oc3ccc(F)cc32)c(=O)n1Cc1ccccc1)N(CCN)C(=O)c1ccc(Br)cc1` (centres unmarked) [Compound 65], the IC50 was less than 30 µM.

On to `CC(C)C(c1nc2c(oc3ccc(F)cc32)c(=O)n1Cc1ccc(Cl)s1)N(CCN)C(=O)c1ccc(Cl)cc1` (centres unmarked) [Compound 68], for which the 50% inhibitory concentration (IC50) is less than 30 µM.

As for `Cc1ccc(C(=O)N(CCN)C(c2nc3c(oc4ccc(F)cc43)c(=O)n2Cc2cc(Br)cs2)C(C)C)cc1` (centres unmarked) [Compound 69], the concentration for half-maximal inhibition (IC50) was less than 30 µM.

`Cc1ccc(C(=O)N(CCCN)C(c2nc3c(oc4ccc(F)cc43)c(=O)n2Cc2ccc(Br)s2)C(C)C)cc1` (centres unmarked) [Compound 70]: the IC50 was less than 30 µM.

As for `Cc1ccc(C(=O)N(CCCN)C(c2nc3c(oc4ccc(F)cc43)c(=O)n2Cc2ccc(Cl)s2)C(C)C)cc1` (centres unmarked) [Compound 71], the IC50 is less than 30 µM.

With `Cc1ccc(C(=O)N(CCCN)C(c2nc3c(oc4ccc(F)cc43)c(=O)n2Cc2ccc(C#N)s2)C(C)C)cc1` (centres unmarked) [Compound 72], the half-inhibitory concentration (IC50) is less than 30 µM.

`Cc1ccc(C(=O)N(CCCN)C(c2nc3c(oc4ccc(F)cc43)c(=O)n2Cc2cc(Br)cs2)C(C)C)cc1` (centres unmarked) [Compound 73]: the IC50 was less than 30 µM.

For the compound `Cc1ccc(C(=O)N(CCCN)C(c2nc3c(oc4ccc(F)cc43)c(=O)n2Cc2cccs2)C(C)C)cc1` (centres unmarked) [Compound 74], the IC50 is less than 30 µM.

With `Cc1ccc(C(=O)N(CCN)C(c2nc3c(oc4ccc(F)cc43)c(=O)n2Cc2ccsc2)C(C)C)cc1` (centres unmarked) [Compound 75], the IC50 is less than 30 µM.

In the case of `Cc1ccc(C(=O)N(CCCN)C(c2nc3c(oc4ccc(F)cc43)c(=O)n2Cc2ccsc2)C(C)C)cc1` (centres unmarked) [Compound 76], the IC50 is less than 30 µM.

As to `Cc1ccc(C(=O)N(CCN)C(c2nc3c(oc4ccc(Cl)cc43)c(=O)n2Cc2ccsc2)C(C)C)cc1` (centres unmarked) [Compound 77], the IC50 was less than 30 µM.

For `Cc1ccc(C(=O)N(CCCN)C(c2nc3c(oc4ccc(Cl)cc43)c(=O)n2Cc2ccsc2)C(C)C)cc1` (centres unmarked) [Compound 78], the IC50 is less than 30 µM.

In the case of `Cc1ccc(C(=O)N(CCN)C(c2nc3c(oc4ccc(F)cc43)c(=O)n2Cc2cccc(F)c2)C(C)C)cc1` (centres unmarked) [Compound 79], the concentration for half-maximal inhibition (IC50) was less than 30 µM.

Take `Cc1ccc(C(=O)N(CCCN)C(c2nc3c(oc4ccc(F)cc43)c(=O)n2Cc2cccc(F)c2)C(C)C)cc1` (centres unmarked) [Compound 80]: the concentration for half-maximal inhibition (IC50) is less than 30 µM.

For the compound `Cc1ccc(C(=O)N(CCCN)C(c2nc3c(oc4ccc(F)cc43)c(=O)n2Cc2ccc(Br)o2)C(C)C)cc1` (centres unmarked) [Compound 82], the 50% inhibitory concentration (IC50) is less than 30 µM.

As for `Cc1ccc(C(=O)N(CCCN)C(c2nc3c(oc4ccc(F)cc43)c(=O)n2Cc2cc(C)cs2)C(C)C)cc1` (centres unmarked) [Compound 85], the half-maximal inhibitory concentration (IC50) was less than 30 µM.

Consider `Cc1ccc(C(=O)N(CCCN)C(c2nc3c(oc4ccc(F)cc43)c(=O)n2Cc2ccc(C(F)(F)F)o2)C(C)C)cc1` (centres unmarked) [Compound 87], for which the IC50 was less than 30 µM.

For `COC(=O)c1ccc(Cn2c(C(C(C)C)N(CCN)C(=O)c3ccc(C)cc3)nc3c(oc4ccc(F)cc43)c2=O)s1` (centres unmarked) [Compound 88], the half-maximal inhibitory concentration (IC50) was less than 30 µM.

Regarding `COC(=O)c1ccc(Cn2c(C(C(C)C)N(CCCN)C(=O)c3ccc(C)cc3)nc3c(oc4ccc(F)cc43)c2=O)s1` (centres unmarked) [Compound 89], the concentration for half-maximal inhibition (IC50) was less than 30 µM.

As to `Cc1ccc(C(=O)N(CCN)C(c2nc3c(oc4ccc(F)cc43)c(=O)n2Cc2ccc(Cl)o2)C(C)C)cc1` (centres unmarked) [Compound 90], the half-inhibitory concentration (IC50) was less than 30 µM.

Regarding `Cc1ccc(C(=O)N(CCCN)C(c2nc3c(oc4ccc(F)cc43)c(=O)n2Cc2ccc(Cl)o2)C(C)C)cc1` (centres unmarked) [Compound 91], the IC50 is less than 30 µM.

Consider `Cc1ccc(C(=O)N(CCN)C(c2nc3c(oc4ccc(F)cc43)c(=O)n2Cc2cc(Br)co2)C(C)C)cc1` (centres unmarked) [Compound 92], for which the IC50 is less than 30 µM.

Consider `Cc1ccc(C(=O)N(CCCN)C(c2nc3c(oc4ccc(F)cc43)c(=O)n2Cc2cc(Br)co2)C(C)C)cc1` (centres unmarked) [Compound 93], for which the IC50 was less than 30 µM.

For `Cc1ccc(C(=O)N(CCN)C(c2nc3c(oc4ccc(Cl)cc43)c(=O)n2Cc2cc(C)cs2)C(C)C)cc1` (centres unmarked) [Compound 94], the half-maximal inhibitory concentration (IC50) was less than 30 µM.

For the compound `Cc1ccc(C(=O)N(CCCN)C(c2nc3c(oc4ccc(Cl)cc43)c(=O)n2Cc2cc(C)cs2)C(C)C)cc1` (centres unmarked) [Compound 95], the 50% inhibitory concentration (IC50) is less than 30 µM.

As for `Cc1ccc(C(=O)N(CCN)C(c2nc3c(oc4ccc(Cl)cc43)c(=O)n2Cc2cccc(F)c2)C(C)C)cc1` (centres unmarked) [Compound 96], the IC50 was less than 30 µM.

On to `Cc1ccc(C(=O)N(CCCN)C(c2nc3c(oc4ccc(Cl)cc43)c(=O)n2Cc2cccc(F)c2)C(C)C)cc1` (centres unmarked) [Compound 97], for which the 50% inhibitory concentration (IC50) was less than 30 µM.

On to `Cc1ccc(C(=O)N(CCN)C(c2nc3c(oc4ccc(F)cc43)c(=O)n2Cc2ccc(C(N)=O)s2)C(C)C)cc1` (centres unmarked) [Compound 98], for which the IC50 is less than 30 µM.

For `Cc1ccc(C(=O)N(CCN)C(c2nc3c(oc4ccc(Cl)cc43)c(=O)n2Cc2cc(Br)co2)C(C)C)cc1` (centres unmarked) [Compound 99], the 50% inhibitory concentration (IC50) is less than 30 µM.

In the case of `Cc1ccc(C(=O)N(CCN)C(c2nc3c(oc4ccc(Cl)cc43)c(=O)n2Cc2ccc(Cl)o2)C(C)C)cc1` (centres unmarked) [Compound 100], the IC50 is less than 30 µM.

`Cc1ccc(C(=O)N(CCN)C(c2nc3c(oc4ccc(Cl)cc43)c(=O)n2Cc2ccc(C(F)(F)F)o2)C(C)C)cc1` (centres unmarked) [Compound 101]: the half-maximal inhibitory concentration (IC50) was less than 30 µM.

Turning to `COC(=O)c1ccc(Cn2c(C(C(C)C)N(CCN)C(=O)c3ccc(C)cc3)nc3c(oc4ccc(F)cc43)c2=O)o1` (centres unmarked) [Compound 102], the IC50 is less than 30 µM.

As for `Cc1ccc(C(=O)N(CCN)C(c2nc3c(oc4ccc(Cl)cc43)c(=O)n2Cc2ccc(Br)o2)C(C)C)cc1` (centres unmarked) [Compound 103], the IC50 is less than 30 µM.

Take `Cc1ccc(C(=O)N(CCN)C(c2nc3c(oc4ccc(F)cc43)c(=O)n2Cc2cccc(C)c2)C(C)C)cc1` (centres unmarked) [Compound 104]: the concentration for half-maximal inhibition (IC50) was less than 30 µM.

As to `Cc1ccc(C(=O)N(CCN)C(c2nc3c(oc4ccc(F)cc43)c(=O)n2Cc2ccccc2)C(C)C)cc1` (centres unmarked) [Compound 105], the IC50 is less than 30 µM.

For the compound `Cc1ccc(C(=O)N(CCCN)C(c2nc3c(oc4cc(F)ccc43)c(=O)n2Cc2ccccc2)C(C)C)cc1` (centres unmarked) [Compound 106], the half-inhibitory concentration (IC50) is less than 30 µM.

Regarding `Cc1ccc(C(=O)N(CCN)C(c2nc3c(oc4cc(Cl)ccc43)c(=O)n2Cc2ccccc2)C(C)C)cc1` (centres unmarked) [Compound 107], the IC50 was less than 30 µM.

Turning to `Cc1ccc(C(=O)N(CCCN)C(c2nc3c(oc4cc(Cl)ccc43)c(=O)n2Cc2ccccc2)C(C)C)cc1` (centres unmarked) [Compound 108], the half-maximal inhibitory concentration (IC50) is less than 30 µM.

In the case of `Cc1ccc(C(=O)N(CCN)C(c2nc3c(oc4cc(F)ccc43)c(=O)n2Cc2cc(C)cs2)C(C)C)cc1` (centres unmarked) [Compound 109], the IC50 is less than 30 µM.

With `Cc1ccc(C(=O)N(CCN)C(c2nc3c(oc4cc(F)ccc43)c(=O)n2Cc2ccc(Cl)s2)C(C)C)cc1` (centres unmarked) [Compound 110], the concentration for half-maximal inhibition (IC50) is less than 30 µM.

On to `Cc1ccc(C(=O)N(CCN)C(c2nc3c(oc4ccc(F)cc43)c(=O)n2Cc2ccc(C#N)o2)C(C)C)cc1` (centres unmarked) [Compound 111], for which the half-inhibitory concentration (IC50) was less than 30 µM.

Regarding `Cc1ccc(C(=O)N(CCN)C(c2nc3c(oc4ccc(F)cc43)c(=O)n2Cc2cc(C#N)cs2)C(C)C)cc1` (centres unmarked) [Compound 112], the IC50 was less than 30 µM.

Turning to `Cc1ccc(C(=O)N(CCN)C(c2nc3c(oc4ccc(F)cc43)c(=O)n2Cc2ccc(C(N)=O)o2)C(C)C)cc1` (centres unmarked) [Compound 113], the IC50 was less than 30 µM.

For `Cc1ccc(C(=O)N(CCN)C(c2nc3c(oc4ccc(F)cc43)c(=O)n2Cc2ccc(C(=O)N(C)C)s2)C(C)C)cc1` (centres unmarked) [Compound 115], the IC50 is less than 30 µM.

For `CCNC(=O)c1ccc(Cn2c(C(C(C)C)N(CCN)C(=O)c3ccc(C)cc3)nc3c(oc4ccc(F)cc43)c2=O)s1` (centres unmarked) [Compound 116], the half-maximal inhibitory concentration (IC50) is less than 30 µM.

Turning to `CCN(CC)C(=O)c1ccc(Cn2c(C(C(C)C)N(CCN)C(=O)c3ccc(C)cc3)nc3c(oc4ccc(F)cc43)c2=O)s1` (centres unmarked) [Compound 117], the IC50 was less than 30 µM.

For `CNC(=O)c1ccc(Cn2c(C(C(C)C)N(CCN)C(=O)c3ccc(C)cc3)nc3c(oc4ccc(F)cc43)c2=O)o1` (centres unmarked) [Compound 118], the IC50 was less than 30 µM.

For the origin of these results see US20090214529A9, “KINESIN INHIBITORS” (TaiGen Biotechnology Co., Ltd., priority 2007, published 2009).
